Results: patent publication US20180214395A1 (priority 2017, published 2018)

Assay: SAD study: cardiac safety (ECG, telemetry, QTcF prolongation)

In the case of `CCC(=O)C(C[C@H](C)N(C)C)(c1ccccc1)c1ccccc1` [d-methadone], the “Overall ECG result Abnormal, NCS” value (5 mg (N = 6), 0.5 h) is reported as 0 n (%), the “Overall ECG result Normal” value (5 mg (N = 6), 0.5 h) is reported as 6 n (%) and the “Overall ECG result Abnormal, NCS” value (5 mg (N = 6), 1 h) is reported as 1 n (%). The “Overall ECG result Normal” value (5 mg (N = 6), 1 h) was 5 n (%), the “Overall ECG result Abnormal, NCS” value (5 mg (N = 6), 2 h) was 3 n (%) and the “Overall ECG result Normal” value (5 mg (N = 6), 2 h) was 3 n (%). The “Overall ECG result Abnormal, NCS” value (5 mg (N = 6), 3 h) was 2 n (%), the “Overall ECG result Normal” value (5 mg (N = 6), 3 h) was 4 n (%) and the “Overall ECG result Abnormal, NCS” value (5 mg (N = 6), 5 h) was 2 n (%). For the same compound, the “Overall ECG result Normal” value (5 mg (N = 6), 5 h) was 4 n (%), the “Overall ECG result Abnormal, NCS” value (5 mg (N = 6), 8 h) was 0 n (%) and the “Overall ECG result Normal” value (5 mg (N = 6), 8 h) was 6 n (%). The “Overall ECG result Abnormal, NCS” value (5 mg (N = 6), 12 h) was 0 n (%), the “Overall ECG result Normal” value (5 mg (N = 6), 12 h) was 6 n (%) and the “Overall ECG result Abnormal, NCS” value (5 mg (N = 6), 24 h) was 1 n (%). The “Overall ECG result Normal” value (5 mg (N = 6), 24 h) was 5 n (%), the “Overall ECG result Abnormal, NCS” value (5 mg (N = 6), 48 h) was 0 n (%) and the “Overall ECG result Normal” value (5 mg (N = 6), 48 h) was 6 n (%). For the same compound, the “Overall ECG result Abnormal, NCS” value (5 mg (N = 6), 72 h) was 0 n (%), the “Overall ECG result Normal” value (5 mg (N = 6), 72 h) was 6 n (%) and the “Overall ECG result Abnormal, NCS” value (5 mg (N = 6), Visit 3) was 1 n (%). For the same compound, the “Overall ECG result Normal” value (5 mg (N = 6), Visit 3) was 5 n (%), the “QTcF Average” value (5 mg, subject 9002, 5 h) was 445 ms and the “QTcF Reading 1” value (5 mg, subject 9002, 5 h) was 451 ms. For the same compound, the “QTcF Reading 2” value (5 mg, subject 9002, 5 h) was 446 ms, the “QTcF Reading 3” value (5 mg, subject 9002, 5 h) was 439 ms and the “QTcF Average” value (5 mg, subject 9003, 1 h) was 420 ms. For the same compound, the “QTcF Reading 1” value (5 mg, subject 9003, 1 h) was 437 ms, the “QTcF Reading 2” value (5 mg, subject 9003, 1 h) was 411 ms and the “QTcF Reading 3” value (5 mg, subject 9003, 1 h) was 412 ms. The “QTcF Average” value (5 mg, subject 9003, 2 h) was 432 ms, the “QTcF Reading 1” value (5 mg, subject 9003, 2 h) was 440 ms and the “QTcF Reading 2” value (5 mg, subject 9003, 2 h) was 434 ms. The “QTcF Reading 3” value (5 mg, subject 9003, 2 h) was 421 ms, the “QTcF Average” value (5 mg, subject 9003, 3 h) was 429 ms and the “QTcF Reading 1” value (5 mg, subject 9003, 3 h) was 424 ms. The “QTcF Reading 2” value (5 mg, subject 9003, 3 h) was 427 ms, the “QTcF Reading 3” value (5 mg, subject 9003, 3 h) was 435 ms and the “QTcF Average” value (5 mg, subject 9003, 5 h) was 432 ms. The “QTcF Reading 1” value (5 mg, subject 9003, 5 h) was 434 ms, the “QTcF Reading 2” value (5 mg, subject 9003, 5 h) was 435 ms and the “QTcF Reading 3” value (5 mg, subject 9003, 5 h) was 426 ms. For the same compound, the “QTcF Average” value (5 mg, subject 9009, 2 h) was 420 ms, the “QTcF Reading 1” value (5 mg, subject 9009, 2 h) was 413 ms and the “QTcF Reading 2” value (5 mg, subject 9009, 2 h) was 431 ms. For the same compound, the “QTcF Reading 3” value (5 mg, subject 9009, 2 h) was 417 ms, the “Overall ECG result Abnormal, NCS” value (20 mg (N = 6), 0.5 h) was 1 (16.7) n (%) and the “Overall ECG result Normal” value (20 mg (N = 6), 0.5 h) was 5 (83.3) n (%). For the same compound, the “Overall ECG result Abnormal, NCS” value (20 mg (N = 6), 1 h) was 1 (16.7) n (%), the “Overall ECG result Normal” value (20 mg (N = 6), 1 h) was 5 (83.3) n (%) and the “Overall ECG result Abnormal, NCS” value (20 mg (N = 6), 2 h) was 2 (33.3) n (%). For the same compound, the “Overall ECG result Normal” value (20 mg (N = 6), 2 h) was 4 (66.7) n (%), the “Overall ECG result Abnormal, NCS” value (20 mg (N = 6), 3 h) was 2 (33.3) n (%) and the “Overall ECG result Normal” value (20 mg (N = 6), 3 h) was 4 (66.7) n (%). The “Overall ECG result Abnormal, NCS” value (20 mg (N = 6), 5 h) was 1 (16.7) n (%), the “Overall ECG result Normal” value (20 mg (N = 6), 5 h) was 5 (83.3) n (%) and the “Overall ECG result Abnormal, NCS” value (20 mg (N = 6), 8 h) was 1 (16.7) n (%). The “Overall ECG result Normal” value (20 mg (N = 6), 8 h) was 5 (83.3) n (%), the “Overall ECG result Abnormal, NCS” value (20 mg (N = 6), 12 h) was 1 (16.7) n (%) and the “Overall ECG result Normal” value (20 mg (N = 6), 12 h) was 5 (83.3) n (%). The “Overall ECG result Abnormal, NCS” value (20 mg (N = 6), 24 h) was 1 (16.7) n (%), the “Overall ECG result Normal” value (20 mg (N = 6), 24 h) was 5 (83.3) n (%) and the “Overall ECG result Abnormal, NCS” value (20 mg (N = 6), 48 h) was 2 (33.3) n (%). For the same compound, the “Overall ECG result Normal” value (20 mg (N = 6), 48 h) was 4 (66.7) n (%), the “Overall ECG result Abnormal, NCS” value (20 mg (N = 6), 72 h) was 1 (16.7) n (%) and the “Overall ECG result Normal” value (20 mg (N = 6), 72 h) was 5 (83.3) n (%). The “Overall ECG result Abnormal, NCS” value (20 mg (N = 6), Visit 3) was 0 n (%), the “Overall ECG result Normal” value (20 mg (N = 6), Visit 3) was 6 (100) n (%) and the “Overall ECG result Abnormal, NCS” value (60 mg (N = 6), 0.5 h) was 1 (16.7) n (%). For the same compound, the “Overall ECG result Normal” value (60 mg (N = 6), 0.5 h) was 5 (83.3) n (%), the “Overall ECG result Abnormal, NCS” value (60 mg (N = 6), 1 h) was 2 (33.3) n (%) and the “Overall ECG result Normal” value (60 mg (N = 6), 1 h) was 4 (66.7) n (%). For the same compound, the “Overall ECG result Abnormal, NCS” value (60 mg (N = 6), 2 h) was 2 (33.3) n (%), the “Overall ECG result Normal” value (60 mg (N = 6), 2 h) was 4 (66.7) n (%) and the “Overall ECG result Abnormal, NCS” value (60 mg (N = 6), 3 h) was 1 (16.7) n (%). For the same compound, the “Overall ECG result Normal” value (60 mg (N = 6), 3 h) was 5 (83.3) n (%), the “Overall ECG result Abnormal, NCS” value (60 mg (N = 6), 5 h) was 1 (16.7) n (%) and the “Overall ECG result Normal” value (60 mg (N = 6), 5 h) was 5 (83.3) n (%). For the same compound, the “Overall ECG result Abnormal, NCS” value (60 mg (N = 6), 8 h) was 2 (33.3) n (%), the “Overall ECG result Normal” value (60 mg (N = 6), 8 h) was 4 (66.7) n (%) and the “Overall ECG result Abnormal, NCS” value (60 mg (N = 6), 12 h) was 3 (50.0) n (%). For the same compound, the “Overall ECG result Normal” value (60 mg (N = 6), 12 h) was 3 (50.0) n (%), the “Overall ECG result Abnormal, NCS” value (60 mg (N = 6), 24 h) was 2 (33.3) n (%) and the “Overall ECG result Normal” value (60 mg (N = 6), 24 h) was 4 (66.7) n (%). The “Overall ECG result Abnormal, NCS” value (60 mg (N = 6), 48 h) was 2 (33.3) n (%), the “Overall ECG result Normal” value (60 mg (N = 6), 48 h) was 4 (66.7) n (%) and the “Overall ECG result Abnormal, NCS” value (60 mg (N = 6), 72 h) was 1 (16.7) n (%). For the same compound, the “Overall ECG result Normal” value (60 mg (N = 6), 72 h) was 5 (83.3) n (%), the “Overall ECG result Abnormal, NCS” value (60 mg (N = 6), Visit 3) was 1 (16.7) n (%) and the “Overall ECG result Normal” value (60 mg (N = 6), Visit 3) was 5 (83.3) n (%). For the same compound, the “Overall ECG result Abnormal, NCS” value (100 mg (N = 6), 0.5 h) was 1 n (%), the “Overall ECG result Normal” value (100 mg (N = 6), 0.5 h) was 5 n (%) and the “Overall ECG result Abnormal, NCS” value (100 mg (N = 6), 1 h) was 0 n (%). The “Overall ECG result Normal” value (100 mg (N = 6), 1 h) was 6 n (%), the “Overall ECG result Abnormal, NCS” value (100 mg (N = 6), 2 h) was 1 n (%) and the “Overall ECG result Normal” value (100 mg (N = 6), 2 h) was 5 n (%). The “Overall ECG result Abnormal, NCS” value (100 mg (N = 6), 3 h) was 3 n (%), the “Overall ECG result Normal” value (100 mg (N = 6), 3 h) was 3 n (%) and the “Overall ECG result Abnormal, NCS” value (100 mg (N = 6), 5 h) was 1 n (%). For the same compound, the “Overall ECG result Normal” value (100 mg (N = 6), 5 h) was 5 n (%), the “Overall ECG result Abnormal, NCS” value (100 mg (N = 6), 8 h) was 1 n (%) and the “Overall ECG result Normal” value (100 mg (N = 6), 8 h) was 5 n (%). The “Overall ECG result Abnormal, NCS” value (100 mg (N = 6), 12 h) was 0 n (%), the “Overall ECG result Normal” value (100 mg (N = 6), 12 h) was 6 n (%) and the “Overall ECG result Abnormal, NCS” value (100 mg (N = 6), 24 h) was 1 n (%). For the same compound, the “Overall ECG result Normal” value (100 mg (N = 6), 24 h) was 5 n (%), the “Overall ECG result Abnormal, NCS” value (100 mg (N = 6), 48 h) was 1 n (%) and the “Overall ECG result Normal” value (100 mg (N = 6), 48 h) was 5 n (%). The “Overall ECG result Abnormal, NCS” value (100 mg (N = 6), 72 h) was 0 n (%), the “Overall ECG result Normal” value (100 mg (N = 6), 72 h) was 6 n (%) and the “Overall ECG result Abnormal, NCS” value (100 mg (N = 6), Visit 3) was 0 n (%). The “Overall ECG result Normal” value (100 mg (N = 6), Visit 3) was 6 n (%) and the “QTcF Average” value (100 mg, subject 9056, 0.5 h) was 425 ms.
